The values below come from patent US20210395210A1, “INHIBITION OF BACTERIAL CHAPERONIN SYSTEMS” (THE TRUSTEES OF INDIANA UNIVERSITY, priority 2018, published 2021).

pIC50: −log10 of the molar value. Like-named read-outs stand apart in the source and are kept apart here.

Usually IC50 stands for the concentration at which inhibition is half-maximal.

One data set can be described thus: in vitro. Conditions: human. Here is the method:
HEK 293 cells were maintained in MEM medium (Corning Cellgro, 10-009 CV) supplemented with 10% FBS (Sigma, F2242). […] Cells at 80% confluence were harvested and diluted in growth medium, then 45 μL of the THLE-3 cells (1,500 cells/well) or HEK 293 cells (1,500 cells/well) were dispensed per well, and plates were sealed with “Breathe Easy” oxygen permeable membranes (Diversified Biotech) and incubated at 37° C., 5% CO2, for 24 h.

A further data set addresses T1, E. coli GroEL/ES (Escherichia coli, UniProt P0A6F5).
T1 construct: made in house; host or cells: GroEL in E. coli DH5α; GroES in E. coli BL21 (DE3)
As to the kind of experiment: GroEL/ES-mediated dMDH refolding assay. Conditions: for log(IC50) GroEL/ES-dMDH Refolding: log of IC50 (μM scale), with standard deviation. Type of data set: biochemical. The procedure:
Reagent preparation: For these assays, four primary reagent stocks were prepared: 1) GroEUES-dMDH or HSP60/10-dMDH binary complex stock; 2) ATP initiation stock; 3) EDTA quench stock; 4) MDH enzymatic assay stock. Denatured MDH (dMDH) was prepared by 2-fold dilution of MDH (5 mg/ml, soluble pig heart MDH from Roche, product #10127248001) with denaturant buffer (7 M guanidine-HCl, 200 mM Tris, pH 7.4, and 50 mM DTT). MDH was completely denatured by incubating at room temperature for 45 min. The binary complex solutions were prepared by slowly adding the dMDH stock to a stirring stock with GroEL (or HSP60) in folding buffer (50 mM Tris-HCl, pH 7.4, 50 mM KCl, 10 mM MgCl2, and 1 mM DTT), followed by addition of GroES (or HSP10). The binary complex stocks were prepared immediately prior to dispensing into the assay plates and had final protein concentrations of 83.3 nM GroEL (Mr 800 kDa) or HSP60 (Mr 400 kDa), 100 nM GroES or HSP10 (Mr 70 kDa), and 20 nM dMDH in folding buffer. For the ATP initiation stock, ATP solid was diluted into folding buffer to a final concentration of 2.5 mM. Quench solution contained 600 mM EDTA (pH 8.0). The MDH enzymatic assay stock consisted of 20 mM sodium mesoxalate and 2.4 mM NADH in reaction buffer (50 mM Tris-HCl, pH 7.4, 50 mM KCl, and 1 mM DTT).
Assay Protocol: First, 30 μL aliquots of the GroEL/ES-dMDH or HSP60/10-dMDH binary complex stocks were dispensed into clear, 384-well polystyrene plates. […] The chaperonin-mediated refolding cycles were initiated by addition of 20 μL of ATP stock (reagent concentrations during refolding cycle: 50 nM GroEL or HSP60, 60 nM GroES or HSP10, 12 nM dMDH, 1 mM ATP, and compounds of 100 μM to 46 nM, 3-fold dilution series). The refolding reactions were incubated at 37° C. […] Next, the assay was quenched by addition of 10 μL of the EDTA to final concentration of 100 mM. […] A340 nm measurements were recorded at 0.5 minutes (start point) and at successive time points until the amount of NADH consumed reached ˜90% (end point, generally between 20-35 minutes). The differences between the start and end point A340 values were used to calculate the % inhibition of the GroEL/ES or HSP60/10 machinery by the compounds. […] Results presented represent the averages of IC50 values obtained from at least quadriplicate (duplicate of duplicate) replicates.
After generating the compound library, we next employed a series of well-established biochemical assays to evaluate compound inhibitory effects against the GroEUES chaperonin system (See FIG. 6 and FIG. 7). We used E. coli GroEUES as the surrogate chaperonin system for refolding of the reporter enzymes malate dehydrogenase (MDH) and rhodanese (Rho). Briefly, binary complexes are formed between GroEL and denatured MDH or Rho, which are then refolded to their native states upon addition of ATP and the GroES co-chaperonin. Enzymatic activities of refolded native MDH or Rho act as coupled reporters of GroEUES refolding functions since in the presence of chaperonin inhibitors, no functional reporter enzymes are generated.

In another data set the target is T2, native MDH (Sus scrofa, UniProt P00346).
T2 construct: soluble pig heart MDH from Roche, product #10127248001; purchased Roche 10127248001; host or cells: pig heart
T2 sequence (P00346 25-338): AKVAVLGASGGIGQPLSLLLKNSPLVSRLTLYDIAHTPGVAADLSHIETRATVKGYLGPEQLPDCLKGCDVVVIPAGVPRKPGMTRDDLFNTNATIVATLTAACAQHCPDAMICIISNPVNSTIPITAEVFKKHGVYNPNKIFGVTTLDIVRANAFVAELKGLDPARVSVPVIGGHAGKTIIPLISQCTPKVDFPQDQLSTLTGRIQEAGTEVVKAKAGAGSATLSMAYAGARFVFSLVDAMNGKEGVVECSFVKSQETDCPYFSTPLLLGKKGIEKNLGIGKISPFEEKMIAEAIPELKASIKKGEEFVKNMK
The data set is described as follows: Counter-screen for inhibition of native MDH enzymatic activity. Conditions: for IC50: log of IC50 (μM scale), with standard deviation, read-out: log(IC50) Native MDH Reporter (converted); for pIC50: read-out: Biochemical Assay IC50 Native MDH Reporter. It counts as biochemical, pig. Here is the method:
Reagent Preparations & Assay Protocol: This assay was performed as described above for the GroEL/ES-dMDH refolding assay; however, the assay protocol differed in the sequence of compound addition to the assay plates. The refolding reactions were allowed to proceed for 45 min at 37° C. in the absence of test compounds (complete refolding of MDH occurs), then quenched with the EDTA stock. Compounds were then pin-transferred into the plates after the EDTA quenching step; thus, compounds effects are only possible by inhibiting the fully-refolded MDH reporter substrate. […] A340 nm measurements were recorded at 0.5 minutes (start point) and at successive time points until the amount of NADH consumed reached ˜90% (end point, generally between 20-35 minutes). Compounds were tested in 8-point, 3-fold dilution series (62.5 μM to 29 nM during the reporter reaction) in clear, flat-bottom 384-well microtiter plates. DMSO was used as a negative control, and previously discovered native MDH inhibitors were used as positive controls. […] Results presented represent the averages of IC50 values obtained from at least quadriplicate (duplicate of duplicate) replicates.
(The purpose of a counterscreen is to sort out artefacts and off-target activity.)

Setting [1] is: read-out: Biochemical Assay IC50 GroEL/ES-dMDH refolding.

T1 sequence (P0A6F5 2-548): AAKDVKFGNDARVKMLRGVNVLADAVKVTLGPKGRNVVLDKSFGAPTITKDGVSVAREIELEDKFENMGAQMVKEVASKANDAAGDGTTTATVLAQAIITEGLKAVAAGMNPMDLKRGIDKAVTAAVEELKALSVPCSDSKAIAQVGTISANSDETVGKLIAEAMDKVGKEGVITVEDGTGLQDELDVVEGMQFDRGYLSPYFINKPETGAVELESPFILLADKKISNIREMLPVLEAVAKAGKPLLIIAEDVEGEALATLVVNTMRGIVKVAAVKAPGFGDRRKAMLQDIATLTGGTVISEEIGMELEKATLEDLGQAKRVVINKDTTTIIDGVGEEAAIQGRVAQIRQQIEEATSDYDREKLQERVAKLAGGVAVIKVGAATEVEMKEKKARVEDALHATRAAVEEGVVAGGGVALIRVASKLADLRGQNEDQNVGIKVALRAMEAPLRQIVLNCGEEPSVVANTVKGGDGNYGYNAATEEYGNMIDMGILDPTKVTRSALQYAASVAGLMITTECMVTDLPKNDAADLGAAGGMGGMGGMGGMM

On to `COc1c(Br)cc(Br)cc1C(=O)Nc1cccc(Cl)c1` [Compound 37, 3,5-Dibromo-N-(3-chlorophenyl)-2-methoxybenzamide], for which, in “in vitro”, the CC50 at 48 h is greater than 100 µM. Further, at E. coli GroEL/ES, the pIC50 is less than 4.00 and the “log(IC50) GroEL/ES-dMDH Refolding” value is greater than 2. In addition, at native MDH, the IC50 was greater than 63.1 µM and the pIC50 was less than 4.20.

The compound `O=C(Nc1ccccc1)c1cc(Br)cc(Br)c1` [Compound 26, 3,5-Dibromo-N-phenylbenzamide] displayed a CC50 at 48 h in the data set “in vitro” greater than 100 µM. At E. coli GroEL/ES, the pIC50 is less than 4.00 and the “log(IC50) GroEL/ES-dMDH Refolding” value is greater than 2. For the same compound, on native MDH, the concentration for half-maximal inhibition (IC50) was greater than 63.1 µM and the pIC50 was less than 4.20.

Compound `O=C(Nc1ccc(Sc2nc3ccccc3s2)c(Cl)c1)c1cccc(Br)c1` [Compound 18, N-(4-(Benzo[d]thiazol-2-ylthio)-3-chlorophenyl)-3-bromobenzamide] displayed a CC50 at 48 h in “in vitro” of 87.1 µM. Moreover, at E. coli GroEL/ES, the pIC50 was less than 4.00. For the same compound, on native MDH, the IC50 is greater than 63.1 µM and the pIC50 is less than 4.20.

As to `COc1c(Br)cccc1C(=O)Nc1ccccc1` [Compound 42, 3-Bromo-2-methoxy-N-phenylbenzamide], the CC50 at 48 h in the data set “in vitro” was greater than 100 µM. For the same compound, at E. coli GroEL/ES, the pIC50 was less than 4.00 and the “log(IC50) GroEL/ES-dMDH Refolding” value is given as greater than 2. At native MDH, the 50% inhibitory concentration (IC50) is greater than 63.1 µM and the pIC50 is less than 4.20.

The compound `COc1ccccc1C(=O)Nc1ccc(Sc2nc3ccccc3s2)cc1` [Compound 36, N-(4-(Benzo[d]thiazol-2-ylthio)phenyl)-2-methoxybenzamide] had a CC50 at 48 h in “in vitro” greater than 100 µM. Further, the pIC50 against E. coli GroEL/ES was less than 4.00. At native MDH, the IC50 was greater than 63.1 µM and the pIC50 was less than 4.20.

In “in vitro”, `O=C(Nc1cccc(Cl)c1)c1ccccc1` [Compound 25, N-(3-Chlorophenyl)benzamide] returned a CC50 at 48 h greater than 100 µM. Further, on E. coli GroEL/ES, the pIC50 was less than 4.00 and the “log(IC50) GroEL/ES-dMDH Refolding” value is on record as greater than 2. Also, on native MDH, the half-inhibitory concentration (IC50) was greater than 63.1 µM and the pIC50 was less than 4.20.

In “in vitro”, `O=C(Nc1cccc(Cl)c1)c1cc(Br)cc(Br)c1O` [Compound 9, 3,5-Dibromo-N-(3-chlorophenyl)-2-hydroxybenzamide] gave a CC50 at 48 h of 9.12 µM. At E. coli GroEL/ES, the “log(IC50) GroEL/ES-dMDH Refolding” value was found to be 1.38 ± 0.15. Besides, the pIC50 on E. coli GroEL/ES (setting [1]) was 4.62. Also, on native MDH, the IC50 was 25.1 µM and the pIC50 is 4.57.

Take `COc1c(Br)cccc1C(=O)Nc1cccc(Cl)c1` [Compound 38]: the CC50 at 48 h in “in vitro” is greater than 100 µM. At E. coli GroEL/ES, the pIC50 is less than 4.00 and the “log(IC50) GroEL/ES-dMDH Refolding” value was greater than 2. At native MDH, the half-inhibitory concentration (IC50) is greater than 63.1 µM and the pIC50 is less than 4.20.

`O=C(Nc1ccccc1)c1cccc(Br)c1` [Compound 27, 3-Bromo-N-phenylbenzamide] registered a CC50 at 48 h in “in vitro” greater than 100 µM. Further, on E. coli GroEL/ES, the pIC50 was less than 4.00 and the “log(IC50) GroEL/ES-dMDH Refolding” value is greater than 2. For the same compound, on native MDH, the IC50 was greater than 63.1 µM and the pIC50 is less than 4.20.

For `COc1c(Br)cccc1C(=O)Nc1ccc(Sc2nc3ccccc3s2)cc1` [Compound 34, N-(4-(Benzo[d]thiazol-2-ylthio)phenyl)-3-bromo-2-methoxybenzamide], the CC50 at 48 h in the data set “in vitro” is greater than 100 µM. Besides, on native MDH, the IC50 was greater than 63.1 µM and the pIC50 is less than 4.20.

Take `O=C(Nc1ccc(Sc2nc3ccccc3s2)cc1)c1ccccc1O` [Compound 8, N-(4-(Benzo[d]thiazol-2-ylthio)phenyl)-2-hydroxybenzamide]: the “selectivity for E. coli GroEL/ES over human HSP60/10 (in words)” value on E. coli GroEL/ES (GroEL/ES-dMDH vs HSP60/10-dMDH IC50) is on record as “selectively inhibit E. coli GroEUES over human HSP60/10”. Further, the “log(IC50) GroEL/ES-dMDH Refolding” value on E. coli GroEL/ES was 1.60 ± 0.26. Further, the figures for the pIC50 on E. coli GroEL/ES (setting [1]) and on native MDH were 4.40 and less than 4.20, respectively. At native MDH, the IC50 was greater than 63.1 µM.

In “in vitro”, `CO[C@H]1/C=C/O[C@@]2(C)Oc3c(C)c(O)c4c(O)c(c(/C=N/N5CCN(C)CC5)c(O)c4c3C2=O)NC(=O)/C(C)=C\C=C\[C@H](C)[C@H](O)[C@@H](C)[C@@H](O)[C@@H](C)[C@H](OC(C)=O)[C@@H]1C` [Rifampicin, rifampicin, reference compound] had a CC50 at 48 h of 72.4 µM. The IC50 on native MDH is greater than 63.1 µM.
